Laboratory results reported in patent US20230087644A1, “Probe for Specifically Detecting Pathological Collagens, and Preparation Method Therefor and Use Thereof” (LANZHOU UNIVERSITY, priority 2020, published 2023).

Assays:
[1] = Colorimetric assay of peptide probe solutions (trimer vs single-stranded state); assay type: physicochemical; details: 300 μM probe solution; for conformational state (colour of solution) at 0° C.: 0° C. ice-water for 12 h after heating; for conformational state (colour of solution) after heating: 85° C. water bath 20 min
Protocol: Take the peptide probe GOP-10, GPP-10, GPO-10 and GOO-10, and prepare 300 μM probe solutions respectively; Keep above probe solutions in a water bath at 85° C. for 20 min, and collect picture data via a digital camera and observe the color of the solutions. Place heated probe solution in the ice-water mixture at 0° C. for 12 h, and then collect picture data via a digital camera again and observe the color of the solution.

[2] = Fluorescence spectrogram of probe solutions after 85° C. water bath and 0° C. ice bath; assay type: physicochemical; details: 300 μM probe solution, excitation 497 nm, emission 500-700 nm
Protocol: Take the peptide probe GOP-10, GPP-10, GPO-10 and GOO-10, and prepare 300 μM probe solutions respectively; Keep above probe solutions in a water bath at 85° C. for 20 min, and measure the fluorescence spectrogram by a fluorescence spectrophotometer immediately. Place heated probe solution in the ice-water mixture at 0° C. for 12 h, and measure the fluorescence spectrogram by fluorescence spectrophotometer again; The excitation wavelength is 497 nm, and the scanning range of emission spectrum is 500-700 nm.

[3] = test system: denatured collagen in mouse intestinal tissue; assay: Staining of collagen in intestinal tissue of mice by peptide probe; assay type: binding; details: 15 μM probe; for fluorescence staining ability, probe incubated at 0° C. before staining: FIG. 5a-d; for fluorescence staining ability, probe pretreated at 85° C. before staining: FIG. 5e-h
Protocol: Take the peptide probe GOP-10, GPP-10, GPO-10 and GOO-10, and prepare 300 μM probe solutions respectively; Take the intestinal tissue samples of mice paraffin embedding and slice to 4 μm; After washing and deparaffinating the slices, treat the intestinal tissue with ultrapure water at 85° C. for 10 minutes to denature collagen.

[4] = Thermal stability test (fluorescence intensity at 525 nm, 0-95° C.); assay type: physicochemical; details: 15 μM probe in 10 mM phosphate buffer; for fluorescence intensity in the range of 0-95° C.: 525 nm, temperature gradient; for thermal transformation temperature: from derivative curves
Protocol: Take the peptide probe GOP-10, GPP-10, GPO-10 and GOO-10, and prepare 300 μM probe solutions respectively; Dilute each probe solution to 15 μM by 10 mM phosphate buffer, and store at 0° C. for later use. Take the probe solutions respectively, raise the temperature from 0° C. to 95° C. in a gradient, and detect the fluorescence intensity of the solutions at 525 nm during the temperature rise process to obtain the […]; Conduct the first derivative of the curve by corresponding the maximum value of the curve to the thermal change temperature of the probe.

[5] = test system: denatured collagen in sternum and tail tissue sections; assay: Staining of denatured collagen in paraffin-embedded mouse sternum and frozen tail tissue sections; assay type: binding; details: general statement on the probes of the embodiments
Protocol: Take the peptide probe prepared in Embodiment 1-5 for staining experiment. Paraffin staining of sternum: Embed mouse sternum tissue sections by paraffin and bake at 75° C. for 2 h; After cooling, treat the tissue with xylene twice, each time for 10 min; Then treat the slice with ethanol of gradient concentration; Finally, use ultrapure water to wash the slices twice. After removing the paraffin, treat the sternum tissue with ultrapure water at 85° C. for 10 minutes to denature collagen. Add blocking solution to the tissue section, leave it for 30 min, then suck up the solution, stain with 100 μL and 15 μM of the above peptide probe solutions, and incubate at 4° C. for 4 h; After removing the staining solution, wash with 1×PBS for 3 times, and wash the unbound probe with the washing solution; Drop mount solution, add cover slide, observe and take photos with fluorescence microscope.
Staining of frozen tail tissue: Treat tail tissue with 1% sodium dodecyl sulfate for 24 hours to denature collagen, and prepare the frozen sections. Put the slices in cold methanol and fix them at −20° C. for 10 min. Wash the frozen sections twice with PBS, add blocking solution to the tissue section, leave it for 30 min, then suck up the solution, stain with 100 μL and 15 μM of the above peptide probe solutions, and incubate at 4° C. for 2 h; After removing the staining solution, wash with 1×PBS for 3 times, and wash the unbound probe with the washing solution; Drop mount solution, add cover slide, observe and take photos with fluorescence microscope.
Results: The staining results of paraffin-embedded sternum tissues of peptide probe GOP-4, GOP-6, GOP-8, GOP-10 and GOP-12 prepared in Embodiment 1-5 of the present invention are shown in FIG. 1a.

[6] = test system: pathological collagen in mouse ear tissue; assay: Staining of collagen in ear tissue of normal mice and diseased mice by peptide probe; assay type: binding; details: 15 μM probe
Protocol: Take the peptide probe GOP-10 and prepare 300 μM probe solutions;
Take mouse ear tissue samples for paraffin embedding and slice to 4 μm; After washing and deparaffinating the slice, treat part of the ear bone tissues with ultrapure water at 85° C. for 10 minutes to denature collagen, thus obtaining injured ear tissues; Untreated ear tissue is normal ear tissue. Add blocking solution to the tissue section, leave it for 30 min, then suck up the solution, stain with 100 μL and 15 μM of the above peptide probe solutions, and incubate at 4° C. for 4 h; After removing the staining solution, stain with 100 μL DAPI diluent for lmin and wash with 1×PBS for 3 times, and wash the unbound probe and excessive DAPI diluent with the washing solution; Drop mount solution, add cover slide, observe and take photos with fluorescence microscope;
The test results are shown in FIG. 6, in which the fluorescence detection results of injured mouse ear tissues are shown in FIG. 6a and normal mouse ear tissues are shown in FIG. 6b.

[7] = test system: pathological collagen in human osteoarthritis tissue; assay: Staining of pathological section of human arthritis; assay type: binding; details: 15 μM probe, 4° C. 4 h
Protocol: Take human osteoarthritis tissue for paraffin embedding, slice to 4 μm, carry out washing and deparaffinating, and then add with 0.5 mL blocking solution, and suck off the liquid after placing for 30 min. Stain with 100 μL, 15 μM peptide probe solution, and incubate at 4° C. for 4 h. After removing the staining solution, stain with 100 μL DAPI diluent for 1 min. Use 1×PBS to wash for 3 times, and wash the unbound probes and excess DAPI. Drop mount solution, add cover slide, observe and take photos with fluorescence microscope.
The staining results of pathological sections of fibrocartilage of human osteoarthritis are shown in FIG. 7, and the staining results of pathological sections of hyaline cartilage of human osteoarthritis are shown in FIG. 8. […] Therefore, the peptide probe GOP-10 prepared by the invention can be used for detecting pathological collagen in human osteoarthritis fibrocartilage and osteoarthritis hyaline cartilage.

conformational state (colour of solution) at 0° C. [1]	conformational state (colour of solution) after heating [1]	change of fluorescence intensity between 85° C. water bath and 0° C. ice bath [2]	fluorescence intensity in the range of 0-95° C. [4]	thermal transformation temperature [4] [°C]	Substance	fluorescence staining ability, probe incubated at 0° C. before staining [3]	fluorescence staining ability, probe pretreated at 85° C. before staining [3]	binding to pathological collagen [5]	fluorescence staining of injured mouse ear tissue ([6]; collagen denatured at 85° C. for 10 min, FIG. 6a)	fluorescence staining of normal mouse ear tissue ([6]; untreated ear tissue, FIG. 6b)	staining of pathological section of fibrocartilage of human osteoarthritis ([7]; FIG. 7)	staining of pathological section of hyaline cartilage of human osteoarthritis ([7]; FIG. 8)
trimer state (orange)	single-stranded conformation (green)	changed significantly	increased significantly	69	FAM-Ahx-(GOO)10-NH2 [GOO-10]	no fluorescence staining ability	can be fluorescently stained					
					FAM-Ahx-(GOP)8-NH2 [GOP-8]			can specifically bind to pathological collagen				
					FAM-Ahx-(GOP)12-NH2 [GOP-12]			can specifically bind to pathological collagen				
trimer state (orange)	single-stranded conformation (green)	changed significantly	increased significantly	63	FAM-Ahx-(GPO)10-NH2 [GPO-10]	no fluorescence staining ability	can be fluorescently stained					
trimer state (orange)	single-stranded conformation (green)	changed significantly	increased significantly	39	FAM-Ahx-(GPP)10-NH2 [GPP-10]	no fluorescence staining ability	can be fluorescently stained					

Substance	conformational state (colour of solution) at 0° C. [1]	conformational state (colour of solution) after heating [1]	change of fluorescence intensity between 85° C. water bath and 0° C. ice bath [2]	fluorescence intensity in the range of 0-95° C. [4]	thermal transformation temperature [4] [°C]	fluorescence staining ability, probe incubated at 0° C. before staining [3]	fluorescence staining ability, probe pretreated at 85° C. before staining [3]	binding to pathological collagen [5]	fluorescence staining of injured mouse ear tissue ([6]; collagen denatured at 85° C. for 10 min, FIG. 6a)	fluorescence staining of normal mouse ear tissue ([6]; untreated ear tissue, FIG. 6b)	staining of pathological section of fibrocartilage of human osteoarthritis ([7]; FIG. 7)	staining of pathological section of hyaline cartilage of human osteoarthritis ([7]; FIG. 8)
FAM-Ahx-(GOP)10-NH2 [GOP-10]	stable single-stranded conformation (green)	single-stranded state (green)	does not change	does not change		good fluorescence staining ability	good fluorescence staining ability	can specifically bind to pathological collagen	stained green	no green fluorescence	can specifically bind to pathological collagen	can specifically bind to pathological collagen
